Data taken from patent publication US20110224221A1, “HEMATOPOIETIC PROTECTION AGAINST IONIZING RADIATION USING SELECTIVE CYCLIN-DEPENDENT KINASE 4/6 INHIBITORS” (priority 2008, published 2011).

System: bone marrow mononuclear cells (BM-MNCs)
Test: Cobblestone area-forming cell (CAFC) assay
Assay type: cell-based, mice
Details: daily oral gavage for 2 days prior to bone marrow harvest
Method: CAFCs are per 1×10^5 bone marrow mononuclear cells (BM-MNCs). Error bars are +/− the standard error of the mean of pooled samples measured in duplicate.
Cobblestone Area-forming Cell (CAFC) Assay: The CAFC assay was performed as described previously. See Meng et al., Cancer Res., 63, 5414-5419 (2003). Briefly, bone marrow was harvested from femurs and tibias of mice and centrifuged to purify BM-MNCs. The frequencies of CAFC were determined at weekly intervals (on day 7, 14, and 35). Wells were scored positive if at least one phase-dark hematopoietic clone (containing 5 or more cells) was seen. The frequency of CAFC was then calculated by using Poisson statistics as described.

Question: How did the “in vivo HSPC number (CAFC)” value turn out when `CC(=O)c1c(C)c2cnc(Nc3ccc(N4CCNCC4)cn3)nc2n(C2CCCC2)c1=O` [PD0332991, 6-acetyl-8-cyclopentyl-5-methyl-2-(5-piperazin-1-yl-pyridin-2-ylamino)-8H-pyrido-[2,3-d]-pyrimidin-7-one] was run?
Answer: did not decrease in vivo HSPC number
